Laboratory results taken from patent publication US4252804A, “Therapeutically useful 3,4,5-trimethoxybenzene derivatives” (Metabio-Joullie, priority 1977, dated 1981).

Legend:
Assay type in all cases: in vivo
[1] = Acute toxicity for oral administration in mice; settings: mouse, in vivo, suspension in 10% gum arabic
Protocol: 1--ACUTE TOXICITY FOR ORAL ADMINISTRATION IN MICE
The compounds are administered orally in increasing doses in suspension in a 10% gum arabic solution to groups of 5 .female. mice of mean weight 25 g. The 50% lethal doses (LD 50) are calculated by the method of KARBER and BEHRENS (Arch. Exp. Path. Pharmakol. 1935, 177, 379-388).
The LD 50's found are summarised in Table IV below and indicate that the tested compounds have low toxicity.

[2] = tested on: spontaneous motor activity; test: Action on spontaneous motor activity in the mouse (BOISSIER); settings: po, 0.5 h, 30 minutes after administration, vs control, read-out: Percentage variation in motor activity; for change in vivo at 500 mg/kg: 500 mg/kg p.o.; for change in vivo at 170 mg/kg: 170 mg/kg p.o.; for change in vivo at 250 mg/kg: 250 mg/kg p.o.
Protocol: 2.1--Action on spontaneous motor activity in the mouse
30 minutes after administration per os of the test compounds, the mice (groups of 12 animals) are installed in individual cages in a BOISSIER activity measuring cupboard and move about before two photoelectric cells placed according to the rectangular coordinates. Meters register the movement during 20 minutes.

[3] = tested on: pentobarbital hypnosis time; test: Action on the pentobarbital hypnosis time in the mouse; settings: po, 0.5 h, 30 minutes before pentobarbital 50 mg/kg i.v., vs control, read-out: Percentage variation in pentobarbital hypnosis time; for change in vivo at 500 mg/kg: 500 mg/kg p.o.; for change in vivo at 170 mg/kg: 170 mg/kg p.o.; for change in vivo at 250 mg/kg: 250 mg/kg p.o.
From the text: 2.2--Action on the pentobarbital hypnosis time in the mouse
The hypnosis time of each mouse is counted in minutes from the moment when the animal may be placed without resistance on its back until that when it spontaneously gets back on its feet.

[4] = tested on: convulsant effects of electric shock; test: Action against the convulsant effects of electric shock in the mouse; settings: po, 0.5 h, 30 minutes before shock, 13 to 16 mA for 0.1 sec, read-out: Percentage protection against the convulsant effects of the electric shock; for responders at 500 mg/kg: 500 mg/kg p.o.
Protocol: (§1) 2.3--Test on the action against the convulsant effects of electric shock and of strychnine in the mouse
(§2) 30 minutes after administration of the compounds to groups of 10 animals, there is investigated the protection induced against:
tonic crisis (extension of rear feet) provoked by supramaximal transcranial electric stimulation (13 to 16 mA for 0.1 sec).
(§3) The results are expressed as a percentage of protection based on a control group which have only received the administration vehicle for the compounds.

[5] = tested on: convulsant effects of strychnine; test: Action against the convulsant effects of strychnine in the mouse; settings: 30 minutes before strychnine 1.5 mg/kg s.c.
Protocol: as §1, §2
convulsive crisis and death provoked by injection of strychnine at a limiting lethal dose of 1.5 mg/kg s.c.
as §3

SMILES | LD50 ([1]; po) [mg/kg] | further results
COc1cc(NC(=O)N2CCN(CC(=O)N3CCCCC3)CC2)cc(OC)c1OC [compound 830] | 5000 | 
COc1cc(NS(=O)(=O)N2CCOCC2)cc(OC)c1OC [compound 791] | > 5000 | change in vivo at 500 mg/kg [2]: -53%; change in vivo at 500 mg/kg [3]: 200%
COc1cc(NC(=O)NCCc2ccccc2)cc(OC)c1OC [compound 783] | > 5000 | 
COc1cc(N(CCN2CCOCC2)C(=O)N2CCOCC2)cc(OC)c1OC [compound 822] | 5000 | 
COc1cc(NC(=O)NC(=O)CN2CCOCC2)cc(OC)c1OC [compound 834] | 3380 | 
C=CCN(C(=O)Nc1cc(OC)c(OC)c(OC)c1)C1CCCCC1 [compound 811] | 5000 | 
COc1cc(NC(=O)NCCc2ccc(Cl)cc2)cc(OC)c1OC [compound 796] | > 5000 | 
COc1cc(NC(=O)N2CCCCCC2)cc(OC)c1OC [compound 813] | 3000 | 
COc1cc(NC(=O)NCCCN(C)C)cc(OC)c1OC [compound 785] | 2200 | 
COc1cc(NC(=O)CN2CCN(c3cccc(C(F)(F)F)c3)CC2)cc(OC)c1OC [compound 838] | > 5000 | 
COc1cc(CNC(=O)Nc2cc(OC)c(OC)c(OC)c2)cc(OC)c1OC [compound 798] | > 5000 | change in vivo at 500 mg/kg [2]: -20%; change in vivo at 500 mg/kg [3]: 145%; responders at 500 mg/kg [4]: 40%
COc1cc(NC(=O)NC2CCCCC2)cc(OC)c1OC [compound 778] | > 5000 | 
COc1cc(NC(=O)N2CCN(C)CC2)cc(OC)c1OC [compound 759] | 4000 | change in vivo at 400 mg/kg ([2]; 400 mg/kg p.o.): -45%; change in vivo at 400 mg/kg ([3]; 400 mg/kg p.o.): 22%; Percentage protection against the convulsant effects of strychnine ([5]; 400 mg/kg p.o.): 55%
COc1cc(NC(=O)Nc2ccnc3cc(Cl)ccc23)cc(OC)c1OC [compound 777] | > 5000 | 
COc1cc(NC(=O)NCC2CCCO2)cc(OC)c1OC (stereo not drawn) [compound 797] | 4400 | 
COc1cc(NC(=O)CN2CCN(CC(=O)Nc3cc(OC)c(OC)c(OC)c3)CC2)cc(OC)c1OC [compound 848] | > 5000 | 
CCN(CC)C(=O)Nc1cc(OC)c(OC)c(OC)c1 [compound 809] | 3000 | change in vivo at 300 mg/kg ([2]; 300 mg/kg p.o.): -78%; change in vivo at 300 mg/kg ([3]; 300 mg/kg p.o.): 157%; responders at 300 mg/kg ([4]; 300 mg/kg p.o.): 80%
COc1cc(NC(=O)NC2CCCC2)cc(OC)c1OC [compound 800] | > 5000 | 
COc1cc(NC(=O)NC(C)CN(C)C)cc(OC)c1OC (stereo not drawn) [compound 784] | 3380 | 
COc1cc(NC(=O)N(C)C)cc(OC)c1OC [compound 775] | 1700 | change in vivo at 170 mg/kg [2]: -40%; change in vivo at 170 mg/kg [3]: 149%; Percentage protection against the convulsant effects of strychnine ([5]; 170 mg/kg p.o.): 33%
COc1cc(NC(=O)NC2CCCCCC2)cc(OC)c1OC [compound 799] | > 5000 | 
COc1cc(NC(=O)N2CCC(O)CC2)cc(OC)c1OC [compound 814] | 5000 | 
COc1cc(N(Cc2ccccc2)C(=O)N2CCOCC2)cc(OC)c1OC [compound 821] | 2500 | 
COc1cc(OC(=O)N2CCN(C)CC2)cc(OC)c1OC [compound 767] |  | LD50 [1]: 1020 mg/kg
COc1cc(NC(=O)N2CCN(C(c3ccccc3)c3ccc(Cl)cc3)CC2)cc(OC)c1OC (stereo not drawn) [compound 795] | > 5000 | 
COc1cc(NC(=O)N2CCOC(C)C2)cc(OC)c1OC (stereo not drawn) [compound 816] | 2500 | 
COc1cc(NC(=O)NCC2CCCCO2)cc(OC)c1OC (stereo not drawn) [compound 815] | 5000 | 

SMILES | LD50 ([1]; po) [mg/kg] | further results
COc1cc(NCC(=O)N2CCN(c3ccccc3)CC2)cc(OC)c1OC [compound 837] | > 5000 | 
COc1cc(NC(=O)N2CCN(C(=O)Nc3cc(OC)c(OC)c(OC)c3)CC2)cc(OC)c1OC [compound 840] | > 5000 | 
COc1cc(NCC(=O)N2CCOc3ccc(Cl)cc32)cc(OC)c1OC [compound 762] | > 5000 | 
COc1cc(NCC(=O)N2CCOCC2)cc(OC)c1OC [compound 793] | 1250 | 
COc1cc(NC(=O)N2CCCO2)cc(OC)c1OC [compound 820] | 1250 | 
COc1cc(NC(=O)ON2CCOCC2)cc(OC)c1OC [compound 828] |  | LD50 [1]: > 5000 mg/kg
COc1cc(NC(=O)CN2CCOCC2)cc(OC)c1OC [compound 787] | 2500 | change in vivo at 250 mg/kg [2]: -84%; change in vivo at 250 mg/kg [3]: 141%
COc1cc(NC(=O)N2CCCC2)cc(OC)c1OC [compound 810] | 3750 | change in vivo at 375 mg/kg ([2]; 375 mg/kg p.o.): -38%; change in vivo at 375 mg/kg ([3]; 375 mg/kg p.o.): 148%; responders at 375 mg/kg ([4]; 375 mg/kg p.o.): 70%
COc1cc(NC(=O)N(C)CCCN(C)C)cc(OC)c1OC [compound 805] | 2500 | 
C=C(C)CNC(=O)Nc1cc(OC)c(OC)c(OC)c1 [compound 812] | 2000 | 
COc1cc(NC(=O)N2CC(C)OC(C)C2)cc(OC)c1OC (stereo not drawn) [compound 788] | 1350 | change in vivo at 135 mg/kg ([2]; 135 mg/kg p.o.): -34%
COc1cc(NC(=O)N(C)C2CCCCC2)cc(OC)c1OC [compound 802] | > 5000 | 
COc1cc(NC(=O)OCCN2CCOCC2)cc(OC)c1OC [compound 818] |  | LD50 [1]: 3500 mg/kg; change in vivo at 350 mg/kg ([2]; 350 mg/kg p.o.): -33%; change in vivo at 350 mg/kg ([3]; 350 mg/kg p.o.): 180%
COc1cc(NC(=O)N2CCSCC2)cc(OC)c1OC [compound 804] | > 5000 | change in vivo at 500 mg/kg [2]: -24%; change in vivo at 500 mg/kg [3]: 120%
COc1cc(NC(=O)N2CCOc3ccc(Cl)cc32)cc(OC)c1OC [compound 770] | > 5000 | 
CCCCN(CCCC)C(=O)Nc1cc(OC)c(OC)c(OC)c1 [compound 780] | > 5000 | 
COc1cc(NC(=O)NN2CCOCC2)cc(OC)c1OC [compound 807] | 2500 | change in vivo at 250 mg/kg [2]: -33%; change in vivo at 250 mg/kg [3]: 98%
COc1cc(NC(=O)CCN2CCN(c3cccc(C(F)(F)F)c3)CC2)cc(OC)c1OC [compound 841] | > 5000 | 
COc1cc(NC(=O)NC2CCCCCCC2)cc(OC)c1OC [compound 781] | > 5000 | 
COc1cc(NC(=O)CCN2CCC(O)(c3ccc(Cl)cc3)CC2)cc(OC)c1OC [compound 829] |  | LD50 [1]: > 5000 mg/kg
COc1cc(NCC(=O)N2CCN(C)CC2)cc(OC)c1OC [compound 786] | 1700 | change in vivo at 170 mg/kg [2]: -20%; change in vivo at 170 mg/kg [3]: 172%
COc1cc(NC(=O)CN2CCOc3ccccc32)cc(OC)c1OC [compound 792] | > 5000 | 
COc1cc(NC(=O)CCN2CCOCC2)cc(OC)c1OC [compound 817] | 5000 | change in vivo at 500 mg/kg [2]: -17%; change in vivo at 500 mg/kg [3]: 300%; responders at 500 mg/kg [4]: 40%
COc1cc(OC(=O)N2CCOc3ccccc32)cc(OC)c1OC [compound 773] |  | LD50 [1]: > 5000 mg/kg
COc1cc(NC(=O)N2CCOc3ccccc32)cc(OC)c1OC [compound 774] | > 5000 | 
COc1cc(NCC(=O)N2CCOc3ccccc32)cc(OC)c1OC [compound 782] | > 5000 | 
